Assay results taken from patent US9476883B2, “Cellular recognition conjugates and methods of use for the histological analysis of cancer tissue using MALDI-MS imaging” (GEORGIA STATE UNIVERSITY RESEARCH FOUNDATION, priority 2011, dated 2016).
“Also recorded” adds a separate entry of the source.

Tests used:
[1] = tested on: cells expressing sialyl Lewis X antigen; assay: MALDI-IMS imaging of a renal cell carcinoma tissue slice incubated with the imaging agent; assay type: binding; details: fresh-frozen renal tissue with tumor and normal regions, 7 μm slice, 2 ng/μl in methanol, overnight at 4° C., no matrix
Procedure: A tissue slice containing renal cell carcinoma was immunostained (mouse monoclonal antibody, GenWay Biotech San Diego, Calif.) that expressed regions coincident with the tumor area (dark stained bottom tip area of FIG. 3; confirmed by pathological analysis).
An adjacent tissue slice (7 μm) was placed on a conductive slide and incubated with the imaging agent of Example 3 in 100% methanol (2 ng/μl) in a humid chamber overnight at 4° C. Slides were washed for 5 minutes in PBS followed by brief water wash to remove any unbound material. The slides are placed in a desiccator for 20 minutes and analyzed directly by MALDI-TOF (no matrix is added) in the reflectron mode using a laser raster width of 200 μm.
The stabilized carbocation is used in this example located and confirm immunological and pathology analysis of this sample that the MALDI indicated region corresponded to the area associated with cancerous tissue.

[2] = tested on: renal cell carcinoma tissue; assay: MALDI-IMS of alcohol fixed (UMFIX/Sakura) renal cell carcinoma tissue exposed to the imaging agent; assay type: binding
Description: FIG. 4 depicts the MALDI-IMS of a renal cell carcinoma tissue sample exposed to the imaging agent of Example 3. FIG. 5 depicts the same tissue sample stained with Sakura/UMFx alcohol.
These red pixels correlate to the MALDI peaks in the spectra shown in FIG. 1 and the color intensity is related to peak abundance as shown in the expression scale. Peaks were obtained in the absence of any chemical matrix. […] As such, this provides a method for probing tumor tissue microarrays prepared from alcohol or formalin fixed tissues.

## COc1ccc(C(SCCC(=O)NCCCn2cc(COc3cc(C(=O)N(C)Cc4c5ccccc5c(CN(C)Cc5ccccc5B(O)O)c5ccccc45)ccc3C(=O)N(C)Cc3c4ccccc4c(CN(C)Cc4ccccc4B(O)O)c4ccccc34)nn2)(c2ccc(OC)cc2)c2ccc(OC)c(C#CCCC(=O)NCc3ccccc3)c2)cc1 [Example 3, [({[({[({2-[(1-{3-[({3-[5-(Benzylamino)-5-oxopent-1-yn-1-yl]-4-methoxyphenyl}bis(4-methoxyphenyl)methyl)thio]propanamido}prop-3-yl)-1H-1,2,3-triazol-4-yl]methoxy}terephthaloyl)bis(methylazanediyl)]bis(methylene)}bis(anthracene-10,9-diyl))bis(methylene)]bis(methylazanediyl)}bis(methylene))bis(2,1-phenylene)]-diboronic acid]
[1]
  binding of the imaging agent to tissue, detected as stabilized carbocation in MALDI-IMS: bound only to the cells expressing sialyl Lewis X antigen
[2]
  binding of the imaging agent to alcohol fixed tumor tissue: affixed to the cell surface; also recorded: capable of binding to alcohol fixed renal tissues
